Test results as given in patent US10508120B2, “TYK2 inhibitors and uses thereof” (Nimbus Lakshmi, Inc., priority 2017, dated 2019).
Where two headings read alike, the source gives them in different places.

What was measured:
[1] = target: human TYK2 (JH2domain-pseudokinase) (Homo sapiens (Human), UniProt P29597); assay: TYK2 JH2 Domain Binding Assay (KINOMEscan)
How it was run: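 Competition binding of a DNA-tagged fusion of human TYK2 JH2 pseudokinase (G556–D888) with NFkB DNA-binding domain, from HEK293 extracts (<0.1 nM final), against immobilised ligand beads; 1 h shaking at room temperature, 0.9% DMSO. Bound kinase quantified by qPCR.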

Tyk2 kinase domain (DH1) = Tyk2 kinase domain (DH1) (Homo sapiens (Human), UniProt P29597); assay: Tyk2 Radioactive Kinase Assay; assay type: biochemical; details: for inhibition at 10 µM: read-out: Tyk2 JH1% Inhibition @ 10 μM
How it was run: (§1)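 Read-out is percent inhibition from a radioactive kinase reaction, measured with compound at 10 μM.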

JAK2 kinase domain (JH1) = JAK2 kinase domain (JH1) (Homo sapiens (Human), UniProt O60674); assay: JAK2 Radioactive Kinase Assay; assay type: biochemical; details: for inhibition at 10 µM: read-out: JAK2 JH1% Inhibition @ 10 μM
How it was run: as §1

[2] = target: Tyk2/JAK2 (heterodimeric complex) (Homo sapiens (Human), UniProt P29597); assay: IL-12 Induced pSTAT4 in Human PBMC; assay type: cell-based; details: 1.7 ng/mL IL-12
Source text: The IL-12 Induced pSTAT4 assay evaluates the inhibition of IL-12 induced STAT4 phophorylation mediated by Tyk2/JAK2 (heterodimeric complex).

[3] = target: JAK2/JAK2 homdimeric complex (Homo sapiens (Human), UniProt O60674); assay: GM-CSF Induced pSTAT5 in Human PBMC; assay type: cell-based; details: GM-CSF 5 ng/mL for 20 minutes, pSTAT5 by MSD, read-out: PBMC_GMCSF_pSTAT5 IC50
Sequence of JAK2/JAK2 homdimeric complex (O60674 whole entry): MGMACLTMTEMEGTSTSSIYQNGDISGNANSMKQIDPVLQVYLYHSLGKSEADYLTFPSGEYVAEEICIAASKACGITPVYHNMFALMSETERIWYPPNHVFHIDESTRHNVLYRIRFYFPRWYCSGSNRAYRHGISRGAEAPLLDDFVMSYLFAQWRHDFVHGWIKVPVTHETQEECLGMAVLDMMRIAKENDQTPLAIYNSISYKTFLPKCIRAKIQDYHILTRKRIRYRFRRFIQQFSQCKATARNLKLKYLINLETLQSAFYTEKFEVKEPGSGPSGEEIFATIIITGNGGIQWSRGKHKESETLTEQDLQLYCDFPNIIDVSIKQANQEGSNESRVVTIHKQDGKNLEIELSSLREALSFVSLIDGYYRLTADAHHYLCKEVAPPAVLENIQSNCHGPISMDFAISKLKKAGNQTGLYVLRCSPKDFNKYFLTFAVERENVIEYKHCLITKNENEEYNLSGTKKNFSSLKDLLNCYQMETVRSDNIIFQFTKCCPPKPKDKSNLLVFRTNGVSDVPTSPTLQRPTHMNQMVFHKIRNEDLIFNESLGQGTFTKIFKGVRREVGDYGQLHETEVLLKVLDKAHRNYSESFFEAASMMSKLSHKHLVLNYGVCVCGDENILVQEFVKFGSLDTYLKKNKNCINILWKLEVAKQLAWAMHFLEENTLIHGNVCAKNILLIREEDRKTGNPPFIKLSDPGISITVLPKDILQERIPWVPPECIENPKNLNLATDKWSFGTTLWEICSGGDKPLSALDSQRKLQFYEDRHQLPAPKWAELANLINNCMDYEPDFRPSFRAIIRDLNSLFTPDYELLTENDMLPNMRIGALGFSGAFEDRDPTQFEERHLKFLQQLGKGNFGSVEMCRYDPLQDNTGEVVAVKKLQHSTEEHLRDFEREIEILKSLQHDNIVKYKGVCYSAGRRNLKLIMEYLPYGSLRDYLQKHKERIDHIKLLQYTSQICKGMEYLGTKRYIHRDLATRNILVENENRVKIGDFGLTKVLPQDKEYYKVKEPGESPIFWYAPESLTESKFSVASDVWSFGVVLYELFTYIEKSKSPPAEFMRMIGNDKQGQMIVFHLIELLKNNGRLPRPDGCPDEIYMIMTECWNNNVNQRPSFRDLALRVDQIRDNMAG
Sequence of JAK2/JAK2 homdimeric complex (P32927 17-897 partner): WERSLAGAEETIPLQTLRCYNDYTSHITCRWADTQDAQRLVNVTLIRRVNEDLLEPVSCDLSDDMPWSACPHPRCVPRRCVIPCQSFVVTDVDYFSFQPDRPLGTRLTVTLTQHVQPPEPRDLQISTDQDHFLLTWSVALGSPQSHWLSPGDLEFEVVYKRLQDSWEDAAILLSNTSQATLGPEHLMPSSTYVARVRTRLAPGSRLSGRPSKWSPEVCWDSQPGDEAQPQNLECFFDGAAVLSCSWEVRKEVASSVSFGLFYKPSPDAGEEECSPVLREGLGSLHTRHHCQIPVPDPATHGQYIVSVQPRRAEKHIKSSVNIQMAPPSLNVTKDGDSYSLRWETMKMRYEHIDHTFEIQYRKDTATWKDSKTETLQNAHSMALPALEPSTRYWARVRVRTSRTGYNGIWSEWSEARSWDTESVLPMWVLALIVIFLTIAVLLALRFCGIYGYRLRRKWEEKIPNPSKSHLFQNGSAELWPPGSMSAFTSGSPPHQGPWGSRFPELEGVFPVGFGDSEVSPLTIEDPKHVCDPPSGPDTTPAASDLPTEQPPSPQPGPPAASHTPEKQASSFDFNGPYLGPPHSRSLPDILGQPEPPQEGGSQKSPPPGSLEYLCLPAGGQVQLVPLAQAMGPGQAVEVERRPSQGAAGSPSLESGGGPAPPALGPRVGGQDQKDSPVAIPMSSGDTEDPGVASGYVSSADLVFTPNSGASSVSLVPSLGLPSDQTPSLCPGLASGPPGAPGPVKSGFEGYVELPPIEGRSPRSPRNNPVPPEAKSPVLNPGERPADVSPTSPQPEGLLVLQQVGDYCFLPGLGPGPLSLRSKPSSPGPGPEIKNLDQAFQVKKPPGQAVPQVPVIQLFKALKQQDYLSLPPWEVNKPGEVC

Sequence of JAK2 kinase domain (JH1) (O60674 849-1124): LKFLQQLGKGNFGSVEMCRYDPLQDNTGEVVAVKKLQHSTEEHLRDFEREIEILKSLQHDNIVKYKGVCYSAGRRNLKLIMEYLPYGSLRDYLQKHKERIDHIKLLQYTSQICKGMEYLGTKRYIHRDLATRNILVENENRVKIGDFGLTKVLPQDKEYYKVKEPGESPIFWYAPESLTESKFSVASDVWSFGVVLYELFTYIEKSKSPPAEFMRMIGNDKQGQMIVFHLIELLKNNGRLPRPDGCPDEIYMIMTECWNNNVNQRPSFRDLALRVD
Sequence of Tyk2 kinase domain (DH1) (P29597 897-1176): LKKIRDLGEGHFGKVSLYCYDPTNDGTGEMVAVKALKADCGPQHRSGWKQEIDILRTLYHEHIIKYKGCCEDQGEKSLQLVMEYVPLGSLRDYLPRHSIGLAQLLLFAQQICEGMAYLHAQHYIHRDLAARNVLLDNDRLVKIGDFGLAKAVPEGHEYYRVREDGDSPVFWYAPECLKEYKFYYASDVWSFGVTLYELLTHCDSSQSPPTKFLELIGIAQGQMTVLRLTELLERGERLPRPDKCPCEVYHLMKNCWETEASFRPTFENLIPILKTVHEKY
Sequence of human TYK2 (JH2domain-pseudokinase) (P29597 556-888): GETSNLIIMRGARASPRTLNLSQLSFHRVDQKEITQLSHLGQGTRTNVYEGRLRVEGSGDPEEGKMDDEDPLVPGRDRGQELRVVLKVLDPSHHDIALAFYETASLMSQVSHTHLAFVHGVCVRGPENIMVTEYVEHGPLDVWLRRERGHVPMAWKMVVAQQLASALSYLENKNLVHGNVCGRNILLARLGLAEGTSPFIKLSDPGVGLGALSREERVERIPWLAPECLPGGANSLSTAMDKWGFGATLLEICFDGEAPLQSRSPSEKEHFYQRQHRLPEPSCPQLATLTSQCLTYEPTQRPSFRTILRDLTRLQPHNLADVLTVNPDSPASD
Sequence of Tyk2/JAK2 (heterodimeric complex) (P29597 whole entry, other chains not shown): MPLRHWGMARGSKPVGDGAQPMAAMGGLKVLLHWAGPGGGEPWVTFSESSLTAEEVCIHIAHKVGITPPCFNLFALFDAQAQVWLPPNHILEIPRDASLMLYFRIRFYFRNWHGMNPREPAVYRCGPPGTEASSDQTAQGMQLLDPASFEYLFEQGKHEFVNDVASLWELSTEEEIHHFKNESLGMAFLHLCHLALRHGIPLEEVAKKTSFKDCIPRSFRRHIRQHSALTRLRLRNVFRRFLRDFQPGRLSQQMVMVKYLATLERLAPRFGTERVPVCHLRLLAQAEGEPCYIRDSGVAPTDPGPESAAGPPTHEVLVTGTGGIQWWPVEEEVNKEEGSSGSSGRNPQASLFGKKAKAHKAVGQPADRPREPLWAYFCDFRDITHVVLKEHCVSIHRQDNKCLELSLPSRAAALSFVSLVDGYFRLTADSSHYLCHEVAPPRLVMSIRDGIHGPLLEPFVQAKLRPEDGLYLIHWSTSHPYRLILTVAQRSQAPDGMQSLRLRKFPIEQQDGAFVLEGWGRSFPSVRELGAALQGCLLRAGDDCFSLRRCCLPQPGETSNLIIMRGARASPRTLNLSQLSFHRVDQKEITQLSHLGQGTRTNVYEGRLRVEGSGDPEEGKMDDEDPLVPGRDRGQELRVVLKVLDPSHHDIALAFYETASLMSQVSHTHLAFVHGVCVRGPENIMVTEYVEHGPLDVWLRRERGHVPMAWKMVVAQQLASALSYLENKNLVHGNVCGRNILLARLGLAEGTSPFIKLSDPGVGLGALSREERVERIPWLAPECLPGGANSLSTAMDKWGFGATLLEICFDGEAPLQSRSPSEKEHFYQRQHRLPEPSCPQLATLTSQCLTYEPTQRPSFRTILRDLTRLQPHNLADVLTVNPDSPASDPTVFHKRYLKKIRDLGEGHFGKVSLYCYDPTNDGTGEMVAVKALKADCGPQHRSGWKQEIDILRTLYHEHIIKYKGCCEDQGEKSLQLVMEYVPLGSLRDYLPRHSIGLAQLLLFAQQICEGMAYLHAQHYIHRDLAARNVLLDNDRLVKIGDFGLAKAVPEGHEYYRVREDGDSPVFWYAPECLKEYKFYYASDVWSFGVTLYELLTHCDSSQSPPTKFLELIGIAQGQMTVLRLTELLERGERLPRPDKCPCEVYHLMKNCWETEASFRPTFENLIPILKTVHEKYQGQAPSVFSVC

Kd [1]	inhibition at 10 µM (Tyk2 kinase domain (DH1); compound at 10 μM, ATP 10 μM)	inhibition at 10 µM (JAK2 kinase domain (JH1); compound at 10 μM, ATP 10 μM)	IC50 [2]	IC50 [3]	inhibition at 10 µM (Tyk2 kinase domain (DH1); 10 μM compound, 10 μM ATP)	inhibition at 10 µM (JAK2 kinase domain (JH1); 10 μM compound, 10 μM ATP)	SMILES	Tyk2 JH1% Inhibition @ 10 μM (Tyk2 kinase domain (DH1); compound at 10 μM, ATP 10 μM)	JAK2 JH1% Inhibition @ 10 μM (JAK2 kinase domain (JH1); compound at 10 μM, ATP 10 μM)
< 0.2 nM	< 50%	< 50%	< 100 nM	> 12500 nM	–	–	CNc1cc(Nc2cc(Cl)cn([C@@H]3CCCOC3)c2=O)nc2c(C(=O)N[C@@H]3C[C@@H]3F)cnn12 [I-773]	–	–
< 0.2 nM	< 50%	< 50%	< 100 nM	> 50000 nM	–	–	CNc1cc(Nc2cccn(-c3cn(C)nc3F)c2=O)nc2c(C(=O)N[C@H]3C[C@H]3F)cnn12 [I-607]	–	–
< 0.2 nM	< 50%	< 50%	< 100 nM	> 50000 nM	–	–	CNc1cc(Nc2cc(F)cnc2OCCOC)nc2c(C(=O)N[C@H]3C[C@H]3F)cnn12 [I-285]	–	–
< 0.2 nM	< 50%	< 50%	< 100 nM	> 50000 nM	–	–	CNc1cc(Nc2cc(Cl)cn(C3CCCOC3)c2=O)nc2c(C(=O)NC3CC3)cnn12 (stereo not drawn) [I-711]	–	–
< 0.2 nM	< 50%	< 50%	< 100 nM	> 50000 nM	–	–	CNc1cc(Nc2cccn(C[C@@H]3CCCCO3)c2=O)nc2c(C(=O)N[C@@H]3C[C@@H]3F)cnn12 [I-428]	–	–
< 0.2 nM	< 50%	< 50%	< 100 nM	> 2500 nM	–	–	CNc1cc(Nc2cccn(-c3ncc(C)s3)c2=O)nc2c(C(=O)N[C@H]3C[C@H]3F)cnn12 [I-262]	–	–
< 0.2 nM	–	–	100 to 500 nM	> 50000 nM	< 50%	< 50%	CNc1cc(Nc2cccc(N3CCO[C@]4(CCOC4)C3)n2)nc2c(C(=O)NC3CC3)cnn12 [I-827]	–	–
< 0.2 nM	< 50%	< 50%	< 100 nM	> 50000 nM	–	–	CNc1cc(Nc2cccnc2OC)nc2c(C(=O)N[C@@H]3CCC[C@H]3O)cnn12 [I-423, N-((1R,2R)-2-hydroxycyclopentyl)-5-((2-methoxypyridin-3-yl)amino)-7-(methylamino)pyrazolo[1,5-a]pyrimidine-3-carboxamide]	–	–
< 0.2 nM	< 50%	< 50%	< 100 nM	> 12500 nM	–	–	CNc1cc(-c2cn(C(C)C)c3ncccc23)nc2c(C(=O)N[C@@H]3CC[C@H]3O)cnn12 [I-640]	–	–
< 0.2 nM	< 50%	< 50%	< 100 nM	> 50000 nM	–	–	[2H]C([2H])([2H])Oc1ncccc1Nc1cc(NC)n2ncc(C(=O)N[C@@H]3CC[C@@H]3O)c2n1 (stereo in doubt) [I-391, N-(2-hydroxycyclobutyl)-5-((2-(methoxy-d3)pyridin-3-yl)amino)-7-(methylamino)pyrazolo [1,5-a]pyrimidine-3-carboxamide]	–	–
< 0.2 nM	–	–	< 100 nM	> 2500 nM	–	–	CNc1cc(Nc2cccc3ocnc23)nc2c(C(=O)N[C@@H]3CC[C@@H]3O)cnn12 [I-770]	A (percent inhibition at 10 μM lower than 50)	A (percent inhibition at 10 μM lower than 50)
< 0.2 nM	–	–	< 100 nM	> 50000 nM	–	–	[2H]C([2H])([2H])Oc1ncccc1Nc1cc(NC)n2ncc(C(=O)N[C@H]3CC[C@H](O)C3)c2n1 [I-500]	A (percent inhibition at 10 μM lower than 50)	A (percent inhibition at 10 μM lower than 50)
< 0.2 nM	< 50%	< 50%	< 100 nM	> 50000 nM	–	–	CNc1cc(Nc2cccc(N3CCCC3=O)n2)nc2c(C(=O)NC3CCC3)cnn12 [I-94]	–	–
< 0.2 nM	< 50%	< 50%	< 100 nM	> 12500 nM	–	–	CNc1cc(Nc2cccn(-c3cc(C)on3)c2=O)nc2c(C(=O)NC3CCC3)cnn12 [I-160]	–	–
< 0.2 nM	< 50%	< 50%	< 100 nM	> 12500 nM	–	–	CNc1cc(Nc2cccnc2OC2CC2)nc2c(C(=O)N[C@@H]3CC[C@@H]3O)cnn12 [I-401]	–	–
< 0.2 nM	–	–	< 100 nM	> 50000 nM	< 50%	< 50%	CNc1cc(Nc2cc(Cl)cn([C@@H]3CCCN(C)C3)c2=O)nc2c(C(=O)NC3CC3)cnn12 [I-819]	–	–
< 0.2 nM	< 50%	< 50%	< 100 nM	> 12500 nM	–	–	CNc1cc(Nc2cccnc2OCCOC)nc2c(C(=O)NC3CCC3)cnn12 [I-219]	–	–
< 0.2 nM	< 50%	< 50%	< 100 nM	> 12500 nM	–	–	CNc1cc(Nc2cc(Cl)cn(C3CCN(C)CC3)c2=O)nc2c(C(=O)N[C@@H]3C[C@@H]3F)cnn12 [I-789]	–	–
< 0.2 nM	< 50%	< 50%	< 100 nM	> 2500 nM	–	–	CNc1cc(Nc2cccc3ocnc23)nc2c(C(=O)NCC(C)(C)CO)cnn12 [I-750]	–	–
< 0.2 nM	< 50%	50 to 70%	< 100 nM	> 12500 nM	–	–	[2H]C([2H])([2H])Oc1ncccc1Nc1cc(NC)n2ncc(C(=O)N[C@@H]3CC[C@H]3O)c2n1 [I-410]	–	–
< 0.2 nM	< 50%	< 50%	< 100 nM	> 50000 nM	–	–	CNc1cc(Nc2cccn(C3CCC4(CC3)OCCO4)c2=O)nc2c(C(=O)N[C@@H]3C[C@@H]3F)cnn12 [I-415, N-((1R,2S)-2-fluorocyclopropyl)-7-(methylamino)-5-((2-oxo-1-(1,4-dioxaspiro 14.51 decan-8-yl)-1,2-dihydropyridin-3-yl)amino)pyrazolo[1,5-a]pyrimidine-3-carboxamide]	–	–
0.2 to 1 nM	< 50%	< 50%	< 100 nM	> 2500 nM	–	–	CNc1cc(-c2cn(C(C)C)c3ncccc23)nc2c(C(N)=O)cnn12 [I-222, 5-(1-isopropyl-1H-pyrrolo[2,3-b]pyridin-3-yl)-7-(methylamino)pyrazolo[1,5-a]pyrimidine-3-carboxamide]	–	–
< 0.2 nM	< 50%	< 50%	< 100 nM	> 2500 nM	–	–	CNc1cc(Nc2cc(Cl)cn(-c3ccn(C4CC4)n3)c2=O)nc2c(C(=O)N[C@H]3C[C@H]3F)cnn12 [I-332]	–	–
< 0.2 nM	< 50%	< 50%	< 100 nM	> 12500 nM	–	–	CNc1cc(Nc2cccnc2OCCOC)nc2c(C(=O)N[C@H]3C[C@H]3F)cnn12 [I-220]	–	–
< 0.2 nM	< 50%	< 50%	< 100 nM	> 2500 nM	–	–	CNc1cc(Nc2cccn([C@H]3CC[C@@H](N4CCOCC4)CC3)c2=O)nc2c(C(=O)NC3CCC3)cnn12 [I-182]	–	–
< 0.2 nM	< 50%	< 50%	< 100 nM	> 12500 nM	–	–	CNc1cc(Nc2cc(Cl)cn(-c3cc(C)n(C)n3)c2=O)nc2c(C(=O)N[C@H]3C[C@H]3F)cnn12 [I-315]	–	–
< 0.2 nM	< 50%	< 50%	< 100 nM	> 12500 nM	–	–	CNc1cc(Nc2cccn([C@@H]3CCCOC3)c2=O)nc2c(C(=O)N[C@@H]3C[C@@H]3F)cnn12 [I-474]	–	–
